Experimental data: patent publication US8614236B2 (University of Washington, priority 2006, dated 2013)
Entries after “also recorded” stand apart in the source; their conditions may differ.

How the values were obtained:
PASMCs [1] = assay: KCl-induced Ca2+ responses in PASMCs; assay type: cell-based, rat
Experimental: Intrapulmonary arteries (200-600 μm o.d.) were isolated from male Wistar rats (250-350 g) and cleaned of connective tissue. After the lumen was gently rubbed with a cotton swab to remove the endothelial cells, the arteries were allowed to recover for 30 minutes in cold (4° C.) HBSS containing (in mM): 130 NaCl, 5 KCl, 1.2 MgCl2, 1.5 CaCl2, 10 N-[2-hydroxyethyl]piperazine-N′-[2-ethanesulfonic acid] (HEPES) and 10 glucose, with pH adjusted to 7.2 with 5 M NaOH, followed by 20 minutes in reduced-Ca^2+ (20 μM CaCl2) HBSS at room temperature. […] Following digestion, single smooth muscle cells were dispersed by gentle trituration with a wide-bore transfer pipette in Ca^2+-free HBSS and the cell suspension was placed on 25 mm glass cover slips. PASMCs were transiently cultured in Ham's-F-12 media supplemented with 0.5% fetal bovine serum and 1% penicillin/streptomycin for 24-48 hrs. before study.
Acute hypoxia increases intracellular [Ca^2+] in pulmonary arterial smooth muscle by enhancing capacitative Ca^2+ entry. […] Ratiometric measurement of fluorescence from the dye was performed on a workstation (Intracellular Imaging Inc, Cincinnati, Ohio) consisting of a Nikon TSE 100 Ellipse inverted microscope with epi-fluorescence attachments. The light beam from a xenon arc lamp was filtered at 340 and 380 nm, and focused onto the PASMCS under examination via a 20× fluorescence objective (Super Fluor 20, Nikon). Light emitted from the cell at 510 nm was returned through the objective and detected by a cooled CCD imaging camera. An electronic shutter (Sutter Instruments) was used to minimize photobleaching of dye. Protocols were executed and data collected on-line with InCyte software (Intracellular Imaging Inc). [Ca^2+]i was estimated from in vitro calibration solutions.

PASMCs [2] = assay: Changes in membrane potential (Em) in PASMCs, DiBAC4(3) fluorescence; assay type: cell-based, rat; details: 100 μM
Experimental: The method for obtaining single PASMCs has been described previously in Shimoda L. A., et al., Am J Physiol 274: 842-853 (1998), which is hereby incorporated by reference in its entirety. Intrapulmonary arteries (200-600 μm o.d.) were isolated from male Wistar rats (250-350 g) and cleaned of connective tissue. After the lumen was gently rubbed with a cotton swab to remove the endothelial cells, the arteries were allowed to recover for 30 minutes in cold (4° C.) HBSS containing (in mM): 130 NaCl, 5 KCl, 1.2 MgCl2, 1.5 CaCl2, 10 N-[2-hydroxyethyl]piperazine-N′-[2-ethanesulfonic acid] (HEPES) and 10 glucose, with pH adjusted to 7.2 with 5 M NaOH, followed by 20 minutes in reduced-Ca^2+ (20 μM CaCl2) HBSS at room temperature. The tissue was enzymatically digested in reduced-Ca^2+ HBSS containing collagenase (type I; 1750 U/ml), papain (9.5 U/ml), bovine serum albumin (2 mg/ml) and dithiothreitol (1 mM) at 37° C. for 20 minutes. Following digestion, single smooth muscle cells were dispersed by gentle trituration with a wide-bore transfer pipette in Ca^2+-free HBSS and the cell suspension was placed on 25 mm glass cover slips. PASMCs were transiently cultured in Ham's-F-12 media supplemented with 0.5% fetal bovine serum and 1% penicillin/streptomycin for 24-48 hrs. before study.
Changes in membrane potential were measured using the fluorescence dye, DiBAC4(3), which was excited at 490 nm and detected at 510 nm. Cells were loaded by continuous perfusion with Kreb's solution containing 500 nM DiBAC4(3) and were perfused for at least 15 minutes before beginning measurements to insure stable uptake of dye. Baseline DiBAC4(3) fluorescence was monitored for 5 minutes with control Kreb's, followed by 10 minutes with Kreb's in the presence or absence of AZ (100 μM). At the end of this period, cells were challenged with KCl (60 mM) or endothelin-1 (ET-1) (10^−8 M). Since DiBAC4(3) is a single wavelength dye, any change in the concentration of the dye in the perfusion medium (i.e., differing concentrations between perfusion reservoirs) could result in a change in fluorescence that is not due to a change in membrane potential. To minimize the possibility of this type of error, all experiments were performed using inflow from a single reservoir into which AZ, KCl or ET-1 were dissolved directly.
AZ has recently been proposed to alter the activation of Ca^2+-activated K^+ channels, causing hyperpolarization. See Pickkers P., et al., Br J Pharmacol 132: 443-450 (2001); Tricarico D., et al., Ann Neurol 48: 304-312 (2000); and Tricarico D., et al., Faseb J 18: 760-761 (2004), which are hereby incorporated by reference in their entirety. Since depolarization is believed to contribute to the hypoxia-induced increase in [Ca^2+]i, AZ-induced hyperpolarization could prevent activation of voltage-gated Ca^2+ channels and an increase in [Ca^2+]i in response to hypoxia. In order to test this possibility, the Em-sensitive fluorescent dye, DiBAC4(3) was used. […] Baseline fluorescence was relatively stable over time, decreasing by 4.11±0.4% over 10 minutes (n=90 cells).

Beagle dogs = assay: Dog study: arterial blood gases, ventilation and acid-base status in normoxia and hypoxia; assay type: in vivo; details: po 5 mg/kg 12 and 1 hr before; hypoxia 3rd h

In the case of `CC(=O)Nc1nnc(S(N)(=O)=O)s1` [AZ, acetazolamide], the “effect on KCl-induced increase in [Ca^2+]i” value (PASMCs [1]; 100 μM) is reported as “no effect; also recorded: not altered”, the “[Ca^2+]i after KCl” value (PASMCs [1]; KCl 60 mM, pretreatment 100 μM) is reported as 292.6 ± 21.2 nM and the “mean change in [Ca^2+]i in response to KCl” value (PASMCs [1]; KCl 60 mM, pretreatment 100 μM, control 123.4±20.6 nM) is reported as 134.7 ± 18.2 nM. For the same compound, the “[Ca^2+]i before KCl” value (PASMCs [1]; pretreatment 100 μM) was 157.8 ± 11.9 nM, the “change in basal DiBAC4(3) fluorescence (basal Em)” value (PASMCs [2]) was −2.86±4.5% and the “effect on basal Em” value (PASMCs [2]) was “no significant effect”. For the same compound, the “increase in DiBAC4(3) fluorescence induced by ET-1 in presence of compound” value (PASMCs [2]; ET-1) was 66.0±10.4%, the “increase in DiBAC4(3) fluorescence induced by KCl in presence of compound” value (PASMCs [2]; KCl) was 53.13±14.8% and the “HCO3a, arterial actual bicarbonate concentration” value (Beagle dogs) was 16.9 ± 0.5 mM.
